Test results: article PMC9266750, “Catalase Inhibition by Aminoalkanol Derivatives with Potential Anti-Cancer Activity—In Vitro and In Silico Studies Using Capillary Electrophoresis Method” (International Journal of Molecular Sciences, 2022)
Like-named read-outs stand apart in the source and are kept apart here.

Assays:
CAT = settings: cited from earlier work
acid phosphatase = tested on: acid phosphatase; design: method as in PMID 34769193; settings: cited from earlier work
[1] = molecular target: T1, Catalase from human erythrocytes (EC 1.11.1.6, CAT) (Homo sapiens, UniProt P04040); test: Catalase (CAT) inhibition kinetics by capillary electrophoresis (hydrogen peroxide/guaiacol/tetraguaiacol); format: biochemical; settings: for Type of inhibition: from Km and Vmax versus control system; for IC50: from activity (%) versus inhibitor concentration plots, one value per compound; for Slope (slope angle of Lineweaver–Burk line): n = 6; for tetraguaiacol (TGCOL) concentration in the presence of inhibitor / guaiacol (GCOL) concentration in the presence of inhibitor: hydrogen peroxide 10 mM, 20.00 mM GCOL; for tetraguaiacol (TGCOL) concentration in the presence of inhibitor: without inhibitors 0.00 mM; for guaiacol (GCOL) concentration in the presence of inhibitor: without inhibitors 20.00 mM
T1 construct: Catalase from human erythrocytes (EC 1.11.1.6, CAT); purchased Sigma–Aldrich (Poznań, Poland); host or cells: human erythrocytes (natural source)
T1 sequence (P04040 2-527 limits assumed): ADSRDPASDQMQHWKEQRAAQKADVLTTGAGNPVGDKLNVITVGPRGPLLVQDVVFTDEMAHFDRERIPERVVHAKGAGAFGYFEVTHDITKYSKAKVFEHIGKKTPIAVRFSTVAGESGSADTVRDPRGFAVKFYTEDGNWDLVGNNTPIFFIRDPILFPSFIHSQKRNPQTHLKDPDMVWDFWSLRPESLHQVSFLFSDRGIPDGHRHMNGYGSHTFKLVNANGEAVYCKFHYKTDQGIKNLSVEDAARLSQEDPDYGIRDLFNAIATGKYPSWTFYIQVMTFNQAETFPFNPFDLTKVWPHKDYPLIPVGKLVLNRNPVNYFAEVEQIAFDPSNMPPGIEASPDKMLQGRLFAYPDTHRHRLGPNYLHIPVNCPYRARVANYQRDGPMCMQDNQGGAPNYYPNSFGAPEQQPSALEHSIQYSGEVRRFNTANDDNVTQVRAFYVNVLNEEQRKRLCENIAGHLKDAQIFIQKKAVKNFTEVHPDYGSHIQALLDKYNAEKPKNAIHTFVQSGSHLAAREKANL
Description: In this study, we used the capillary electrophoresis (CE) method developed by us to determine the tetraguaiacol complex as a product of the catalase-catalyzed reaction (CAT) (Table 1) in the presence of the enzyme, hydrogen peroxide (HPER) (as a substrate), guaiacol (GCOL) and inhibitors (I), (II), (III) and (IV) (Figure 2). Based on this method, we investigated changes in the concentration of guaiacol reacting with changes in the concentration of hydrogen peroxide depending on the activity of catalase and changes in the concentrations of the formed tetraguaiacol as the final reaction product. The developed CE technique made it possible to measure all the parameters thanks to the possibility of using three wavelengths simultaneously in one analysis. Investigations of kinetic parameters were based on mutual measurements of concentration changes between guaiacol (as the second reactant reacting with hydrogen peroxide) and tetraguaiacol as the final reaction product.
For the development of this method, we optimized the buffer pH, separating background electrolyte (BGE) concentration, wavelength, temperature, and voltage in accordance with the earlier procedure. […]. All these separation systems were tested to achieve the best separation parameters, resolution, and analysis time for all components in the reaction mixture. The best separation of tetraguaiacol, guaiacol, catalase (CAT) and compounds (I), (II), (III), (IV) was obtained with 100 mM phosphate buffer (pH 7.5). The measurements were taken at 214, 274 and 470 nm with a fused-silica capillary (effective length: 20 cm, diameter: 50 μm). The capillary temperature was 25 °C, which allowed the best resolution to be achieved. Separation was carried out at 20 kV. Each sample was added to the capillary under hydrodynamic injection. Average detection times for guaiacol (GCOL), compounds (I), (II), (III), (IV), tetraguaiacol (TGCOL) and CAT were […], respectively (Figure 2). […]. […]
Electrophoretic separations of catalase (CAT), hydrogen peroxide, guaiacol (GCOL) tetra guaiacol (TGCOL), and inhibitors (I), (II), (III) and (IV) of catalase, by CE was performed using 100 mM (NaH2PO4) phosphate buffer as a background electrolyte (BGE) adjusted with 100 mM sodium hydroxide to the pH = 7.5. The samples were injected under 5 psi pressure for 3 s. The experiments were performed under constant current conditions (97 μA). The separation temperature was 25 °C, and the detection wavelengths were set at 214, 274 and 470 nm. Before the assay, the capillary was conditioned according to the previously described procedure.
Sample mixtures containing catalase (CAT), hydrogen peroxide (HPER), guaiacol (GCOL), tetra guaiacol (TGCOL), and inhibitors (I), (II), (III) and (IV) were introduced automatically by pressure injection (with 5 psi pressure for 3 s on the sample solution). At the day’s end, vials with anode and a cathode buffer were emptied and a running buffer was filled again at the start of the next day before the analysis. The detector wavelength was fixed at 470 nm. Hydrogen peroxide was not detected at wavelength of 470 nm. The appropriate parameters for analyzing CAT, TGCOL and (I), (II), (III) and (IV) inhibitors were as follows: phosphate buffer (pH = 7.5) of 100 mM concentration, 25 °C temperature, and 20 kV voltage.
The CAT in the amount of 10 μg was dissolved in the 10 mL 100 mM phosphate buffer, pH 7.5 and divided into several portions, which were stored at −20 °C. One aliquot was thawed each day and the CAT activity was checked. For kinetic studies a catalase solution with a final concentration of 1 µg/mL was prepared. The working solutions of GCOL, TGCOL and HPER in appropriate concentrations were prepared immediately before use by dilution with the phosphate buffer according to the previously described procedure. […]

acetylcholinesterase = settings: cited from earlier work
alkaline phosphatase = settings: cited from earlier work
[2] = inhibitor 2.50 mM, without inhibitor 1.26 ± 0.02
[3] = inhibitor 2.50 mM, without inhibitor 23.31 ± 0.04

SMILES: Nc1nc[nH]n1 [3-Amino-1,2,4-triazole]
- IC50 (CAT; specific catalase inhibitor): 6 mM

SMILES: CC(C)NCC(O)CN1C(=O)C2C(C1=O)C1(C)C(=O)C2(C)C(c2ccccc2)=C1c1ccccc1 (stereo not shown) [Compound (III)]
- inhibition of enzymatic activity (acid phosphatase): inhibited
- Type of inhibition [1]: Competitive
- IC50 [1]: 10.3 ± 0.03 mM
- Vmax [1, 2]: 1.24 ± 0.07 mM/min
- Slope (slope angle of Lineweaver–Burk line) [1, 3]: 25.09 ± 0.04
- Vmax ([1]; inhibitor 5.00 mM): 1.25 ± 0.08 mM/min
- Slope (slope angle of Lineweaver–Burk line) ([1]; inhibitor 5.00 mM): 25.84 ± 0.05
- Vmax ([1]; inhibitor 10.00 mM): 1.24 ± 0.07 mM/min
- Slope (slope angle of Lineweaver–Burk line) ([1]; inhibitor 10.00 mM): 28.60 ± 0.04
- Vmax ([1]; inhibitor 15.00 mM): 1.24 ± 0.09 mM/min
- Vmax ([1]; inhibitor 20.00 mM): 1.25 ± 0.02 mM/min
- tetraguaiacol (TGCOL) concentration in the presence of inhibitor ([1]; inhibitor 20.00 mM): 8.29 mM
- guaiacol (GCOL) concentration in the presence of inhibitor ([1]; inhibitor 20.00 mM): 11.71 mM
- Slope (slope angle of Lineweaver–Burk line) ([1]; inhibitor 20.00 mM): 32.68 ± 0.02
- inhibition of enzymatic activity (acetylcholinesterase): inhibited
- inhibition of enzymatic activity (alkaline phosphatase): inhibited

SMILES: CCC12C(=O)C(CC)(C(c3ccccc3)=C1c1ccccc1)C1C(=O)N(CC(O)CNC(C)C)C(=O)C12 (stereo not shown) [Compound (I)]
- inhibition of enzymatic activity (acid phosphatase): inhibited
- Type of inhibition [1]: Competitive
- IC50 [1]: 11.4 ± 0.05 mM
- Vmax [1, 2]: 1.25 ± 0.04 mM/min
- Slope (slope angle of Lineweaver–Burk line) [1, 3]: 24.72 ± 0.05
- Vmax ([1]; inhibitor 5.00 mM): 1.24 ± 0.07 mM/min
- Slope (slope angle of Lineweaver–Burk line) ([1]; inhibitor 5.00 mM): 25.43 ± 0.05
- Vmax ([1]; inhibitor 10.00 mM): 1.25 ± 0.05 mM/min
- Slope (slope angle of Lineweaver–Burk line) ([1]; inhibitor 10.00 mM): 27.33 ± 0.06
- Vmax ([1]; inhibitor 15.00 mM): 1.24 ± 0.07 mM/min
- Slope (slope angle of Lineweaver–Burk line) ([1]; inhibitor 15.00 mM): 28.62 ± 0.06
- Vmax ([1]; inhibitor 20.00 mM): 1.25 ± 0.05 mM/min
- tetraguaiacol (TGCOL) concentration in the presence of inhibitor ([1]; inhibitor 20.00 mM): 5.86 mM
- guaiacol (GCOL) concentration in the presence of inhibitor ([1]; inhibitor 20.00 mM): 14.14 mM
- Slope (slope angle of Lineweaver–Burk line) ([1]; inhibitor 20.00 mM): 30.75 ± 0.04
- inhibition of enzymatic activity (acetylcholinesterase): inhibited
- inhibition of enzymatic activity (alkaline phosphatase): inhibited

SMILES: CCC12C(=O)C(CC)(C(c3ccccc3)=C1c1ccccc1)C1C(=O)N(CC(O)CN(C)C)C(=O)C12 (stereo not shown) [Compound (II)]
- inhibition of enzymatic activity (acid phosphatase): inhibited
- Type of inhibition [1]: Competitive
- IC50 [1]: 12.8 ± 0.07 mM
- Vmax [1, 2]: 1.24 ± 0.06 mM/min
- Slope (slope angle of Lineweaver–Burk line) [1, 3]: 23.70 ± 0.05
- Vmax ([1]; inhibitor 5.00 mM): 1.24 ± 0.06 mM/min
- Slope (slope angle of Lineweaver–Burk line) ([1]; inhibitor 5.00 mM): 24.24 ± 0.05
- Vmax ([1]; inhibitor 10.00 mM): 1.26 ± 0.03 mM/min
- Slope (slope angle of Lineweaver–Burk line) ([1]; inhibitor 10.00 mM): 25.30 ± 0.06
- Vmax ([1]; inhibitor 15.00 mM): 1.25 ± 0.04 mM/min
- Slope (slope angle of Lineweaver–Burk line) ([1]; inhibitor 15.00 mM): 26.00 ± 0.04
- Vmax ([1]; inhibitor 20.00 mM): 1.24 ± 0.04 mM/min
- tetraguaiacol (TGCOL) concentration in the presence of inhibitor ([1]; inhibitor 20.00 mM): 2.44 mM
- guaiacol (GCOL) concentration in the presence of inhibitor ([1]; inhibitor 20.00 mM): 17.56 mM
- Slope (slope angle of Lineweaver–Burk line) ([1]; inhibitor 20.00 mM): 27.06 ± 0.05
- inhibition of enzymatic activity (acetylcholinesterase): inhibited
- inhibition of enzymatic activity (alkaline phosphatase): inhibited

SMILES: CN(C)CC(O)CN1C(=O)C2C(C1=O)C1(C)C(=O)C2(C)C(c2ccccc2)=C1c1ccccc1 (stereo not shown) [Compound (IV)]
- inhibition of enzymatic activity (acid phosphatase): inhibited
- Type of inhibition [1]: Competitive
- IC50 [1]: 12.2 ± 0.06 mM
- Vmax [1, 2]: 1.25 ± 0.03 mM/min
- Slope (slope angle of Lineweaver–Burk line) [1, 3]: 24.33 ± 0.06
- Vmax ([1]; inhibitor 5.00 mM): 1.24 ± 0.06 mM/min
- Slope (slope angle of Lineweaver–Burk line) ([1]; inhibitor 5.00 mM): 25.00 ± 0.05
- Vmax ([1]; inhibitor 10.00 mM): 1.24 ± 0.06 mM/min
- Slope (slope angle of Lineweaver–Burk line) ([1]; inhibitor 10.00 mM): 26.24 ± 0.04
- Vmax ([1]; inhibitor 15.00 mM): 1.23 ± 0.05 mM/min
- Slope (slope angle of Lineweaver–Burk line) ([1]; inhibitor 15.00 mM): 27.30 ± 0.05
- Vmax ([1]; inhibitor 20.00 mM): 1.26 ± 0.02 mM/min
- tetraguaiacol (TGCOL) concentration in the presence of inhibitor ([1]; inhibitor 20.00 mM): 4.39 mM
- guaiacol (GCOL) concentration in the presence of inhibitor ([1]; inhibitor 20.00 mM): 15.61 mM
- Slope (slope angle of Lineweaver–Burk line) ([1]; inhibitor 20.00 mM): 29.27 ± 0.03
- inhibition of enzymatic activity (acetylcholinesterase): inhibited
- inhibition of enzymatic activity (alkaline phosphatase): inhibited

SMILES: [N-]=[N+]=[N-] [sodium azide]
- IC50 (CAT): 0.025 mM

SMILES: NO [hydroxylamine]
- IC50 (CAT): 0.02 mM
